This passage reports inhibition results from patent US10370425B2, “Peptide antagonists of the calcitonin CGRP family of peptide hormones and their use” (priority 2012, dated 2019).

Positions of bridges follow the written chain, without caps; N, C: chain ends. Residues, ends and D or L forms follow the SMILES beside them.

T1 sequence (P30988 25-474): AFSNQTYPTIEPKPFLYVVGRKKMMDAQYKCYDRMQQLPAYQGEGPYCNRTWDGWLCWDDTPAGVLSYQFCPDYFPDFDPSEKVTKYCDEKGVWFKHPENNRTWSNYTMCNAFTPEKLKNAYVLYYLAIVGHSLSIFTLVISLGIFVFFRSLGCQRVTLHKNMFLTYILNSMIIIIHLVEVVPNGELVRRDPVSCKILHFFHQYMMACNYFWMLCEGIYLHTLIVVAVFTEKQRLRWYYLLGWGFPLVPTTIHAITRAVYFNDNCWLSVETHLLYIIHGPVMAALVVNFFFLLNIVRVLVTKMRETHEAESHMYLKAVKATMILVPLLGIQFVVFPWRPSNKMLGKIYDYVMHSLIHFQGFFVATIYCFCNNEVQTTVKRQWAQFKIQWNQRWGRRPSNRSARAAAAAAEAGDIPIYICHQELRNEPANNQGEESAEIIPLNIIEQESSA
T1 sequence (O60894 27-148): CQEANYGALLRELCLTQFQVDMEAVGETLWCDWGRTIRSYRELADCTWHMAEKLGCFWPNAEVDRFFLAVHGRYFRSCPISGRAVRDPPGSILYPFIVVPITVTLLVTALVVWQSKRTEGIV

The test has as its target T1, amylin receptor, AMY1, a CT (calcitonin) receptor/RAMP1 (receptor-activity modifying protein) complex (Homo sapiens, UniProt O60894+P30988).
T1 construct: host or cells: CHO-K1/AMY1/Gα15
As to the kind of experiment: Calcium flux assay (FLIPR Calcium 4) of inhibition of α-CGRP stimulation in CHO-K1/AMY1/Gα15 cells. The format is cell-based. Particulars: at maximal test concentration (series starts with 1 μM); CHO-K1/AMY1/Gα15 cells stimulated with 32 nM (EC80) α-CGRP; n = 2; read-out: % Inhibition @ Maximal concentration (Mean +/− SD, n = 2). The procedure: Using a calcium flux assay, the dose-dependent inhibitory response of peptide antagonists of the present invention on an amylin receptor, AMY1, a CT (calcitonin) receptor/RAMP1 (receptor-activity modifying protein) complex was determined. The recombinant cell line CHO-K1/AMY1/Gα15 (GenScript, Piscataway, N.J., Catalog No. M00475) was employed in the assay. Peptide antagonist activities were tested, in duplicate, at five different concentrations, starting with 1 μM and serially diluted five-fold, in DMSO. AC187 (SEQ ID NO: 55), a known amylin receptor antagonist (available for example from Tocris Bioscience, Minneapolis, Minn., Catalog No. 3419) was used as a positive control in the assays, and human α-CGRP, a known amylin receptor agonist (SEQ ID NO:56) , (available for example from Tocris Bioscience, Minneapolis, Minn., Catalog No. 3012) was used as a positive control in the assays. The FLIPR® Calcium 4 Assay Kit (Molecular Devices, Sunnyvale, Calif.) was used.
Human α-CGRP having the amino acid sequence, NH2-[…]-NH2 (SEQ ID NO:56) and AC187 having the sequence […] (SEQ ID NO: 55) were employed as negative and positive controls, respectively. Stock solutions were further diluted in HBSS-HEPES buffer to make 5×final control solutions.
CHO-K1/AMY1/Gα15 cells were seeded in a 384-well black wall, clear bottom plate at a density of 20,000 cells/well in 20 μL of growth medium 20 hours prior to the day of the experiment and maintained at 37° C./5% CO2.
Per the assay kit protocol, dye-loading solution (at 2×final concentration) was added into the assay plate, 20 μL per well. Compound solution (at 5 ×final concentration) was added into the assay plate, 10 uL per well. The assay plate was placed into a 37° C. incubator for 1 hour, then left for 15 min at RT. The agonist plate (at 5×EC80 concentration) was placed in Source 2. The total reading time was 120 sec. The agonist was added after 20 seconds reading of the baseline and the fluorescence signal was captured for another 100 seconds (21 s to 120 s).
In screening, cells stimulated with assay buffer were chosen as the background; cells stimulated with agonist (at […] concentration) were chosen as the negative control.
Data were recorded by ScreenWorks (version 3.1) as FMD files and stored on the GenScript computer network for off-line analysis. Data acquisition and analyses was performed using ScreenWorks (version 3.1) program and exported to Excel. The average value of 20 (1 s to 20 s) seconds reading was calculated as the baseline reading and the relative fluorescent units (ΔRFU) intensity values were calculated with the maximal fluorescent units (21 s to 120 s) subtracting the average value of baseline reading.
The IC50 value of AC187 was 8 μM. The inhibitory activity of the tested peptide antagonists was normalized with the negative control (AC187) and reported as % Inhibition, calculated from the following equation: % Inhibition=(ΔRFUcompound−ΔRFUBackground)/(ΔRFUNegative control−ΔRFUBackground) * 100% Inhibition was then plotted along the Y-axis, with the test concentrations as indicated on the X-axis. The peptides were tested at indicated concentrations and stimulated with 32 nM (EC80) α-CGRP (Mean +/− SD, n=2).
Regarding `CC(C)C[C@@H]1NC(=O)[C@H](C)NC(=O)[C@H]([C@@H](C)O)NC(=O)[C@H](CC(=O)O)NC(=O)[C@@H](NC(=O)[C@H](C)N)CSSC[C@@H](C(=O)N[C@H](C(=O)N[C@@H](CC(C)C)C(=O)NCC(=O)N[C@@H](CCCNC(=N)N)C(=O)N[C@@H](CC(C)C)C(=O)N[C@@H](CO)C(=O)N[C@@H](CCC(N)=O)C(=O)N[C@@H](CCC(=O)O)C(=O)N[C@@H](CC(C)C)C(=O)N[C@@H](Cc2c[nH]cn2)C(=O)N[C@@H](CCCNC(=N)N)C(=O)N[C@@H](CC(C)C)C(=O)N[C@@H](CCC(N)=O)C(=O)N[C@H](C(=O)N[C@@H](Cc2ccc(O)cc2)C(=O)N2CCC[C@H]2C(=O)N[C@@H](CCCNC(=N)N)C(=O)N[C@H](C(=O)N[C@@H](CC(N)=O)C(=O)N[C@H](C(=O)NCC(=O)N[C@@H](CO)C(=O)N[C@@H](CCCCN)C(=O)N[C@@H](C)C(=O)N[C@@H](Cc2ccccc2)C(N)=O)C(C)C)[C@@H](C)O)[C@@H](C)O)C(C)C)NC1=O` [compound 9] (H-ACDTALCVLGRLSQELHRLQTYPRTNVGSKAF-NH2; disulfide 2-7 (inferred)), the inhibition at 1 µM is 95.6%.

On to `CC(C)C[C@H](NC(=O)[C@H](CCCNC(=N)N)NC(=O)CNC(=O)[C@H](CC(C)C)NC(=O)[C@@H](NC(=O)[C@@H]1CSSC[C@H](N)C(=O)N[C@@H](CO)C(=O)N[C@@H](CC(N)=O)C(=O)N[C@@H]([C@@H](C)O)C(=O)N[C@@H](C)C(=O)N[C@@H](C(C)C)C(=O)N1)C(C)C)C(=O)N[C@@H](CO)C(=O)N[C@@H](CCC(N)=O)C(=O)N[C@@H](CCC(=O)O)C(=O)N[C@@H](CC(C)C)C(=O)N[C@@H](Cc1c[nH]cn1)C(=O)N[C@@H](CCCNC(=N)N)C(=O)N[C@@H](CC(C)C)C(=O)N[C@@H](CCC(N)=O)C(=O)N[C@H](C(=O)N[C@@H](Cc1ccc(O)cc1)C(=O)N1CCC[C@H]1C(=O)N[C@@H](CCCNC(=N)N)C(=O)N[C@H](C(=O)N[C@@H](CC(N)=O)C(=O)N[C@H](C(=O)NCC(=O)N[C@@H](CO)C(=O)N[C@@H](CCCCN)C(=O)N[C@@H](C)C(=O)N[C@@H](Cc1ccccc1)C(N)=O)C(C)C)[C@@H](C)O)[C@@H](C)O` [compound 12] (H-CSNTAVCVLGRLSQELHRLQTYPRTNVGSKAF-NH2; disulfide 1-7 (inferred)), for which the inhibition at 1 µM was 96.1%.

For the compound `CC(C)C[C@H](NC(=O)[C@H](CCCNC(=N)N)NC(=O)CNC(=O)[C@H](CC(C)C)NC(=O)[C@@H](NC(=O)[C@@H]1CSSC[C@H](NC(=O)[C@H](C)N)C(=O)N[C@@H](CC(N)=O)C(=O)N[C@@H]([C@@H](C)O)C(=O)N[C@@H](C)C(=O)N[C@@H](C)C(=O)N1)C(C)C)C(=O)N[C@@H](CO)C(=O)N[C@@H](CCC(N)=O)C(=O)N[C@@H](CCC(=O)O)C(=O)N[C@@H](CC(C)C)C(=O)N[C@@H](Cc1c[nH]cn1)C(=O)N[C@@H](CCCNC(=N)N)C(=O)N[C@@H](CC(C)C)C(=O)N[C@@H](CCC(N)=O)C(=O)N[C@H](C(=O)N[C@@H](Cc1ccc(O)cc1)C(=O)N1CCC[C@H]1C(=O)N[C@@H](CCCNC(=N)N)C(=O)N[C@H](C(=O)N[C@@H](CC(N)=O)C(=O)N[C@H](C(=O)NCC(=O)N[C@@H](CO)C(=O)N[C@@H](CCCCN)C(=O)N[C@@H](C)C(=O)N[C@@H](Cc1ccccc1)C(N)=O)C(C)C)[C@@H](C)O)[C@@H](C)O` [compound 4] (H-ACNTAACVLGRLSQELHRLQTYPRTNVGSKAF-NH2; disulfide 2-7 (inferred)), the inhibition at 1 µM is 94.6%.

Consider `CC(C)C[C@H](NC(=O)CNC(=O)[C@H](C)NC(=O)[C@H](CC(C)C)NC(=O)[C@H](CCCNC(=N)N)NC(=O)[C@H](Cc1c[nH]cn1)NC(=O)[C@@H](NC(=O)[C@@H](NC(=O)[C@@H]1CSSC[C@H](NC(=O)[C@H](C)N)C(=O)N[C@@H](CC(=O)O)C(=O)N[C@@H]([C@@H](C)O)C(=O)N[C@@H](C)C(=O)N[C@@H](C)C(=O)N1)C(C)C)[C@@H](C)O)C(=O)N[C@@H](CC(C)C)C(=O)N[C@@H](CO)C(=O)N[C@@H](CCCNC(=N)N)C(=O)N[C@@H](CO)C(=O)NCC(=O)NCC(=O)N[C@H](C(=O)N[C@H](C(=O)N[C@@H](CCCCN)C(=O)N[C@@H](CC(N)=O)C(=O)N[C@@H](CC(N)=O)C(=O)N[C@@H](Cc1ccccc1)C(=O)N[C@H](C(=O)N1CCC[C@H]1C(=O)N[C@H](C(=O)N[C@@H](CC(N)=O)C(=O)N[C@H](C(=O)NCC(=O)N[C@@H](CO)C(=O)N[C@@H](CCCCN)C(=O)N[C@@H](C)C(=O)N[C@@H](Cc1ccccc1)C(N)=O)C(C)C)[C@@H](C)O)C(C)C)C(C)C)C(C)C` [compound 15], for which the inhibition at 1 µM was determined as 23.3%.

With `CC(C)C[C@H](NC(=O)[C@H](CCCNC(=N)N)NC(=O)CNC(=O)[C@H](CC(C)C)NC(=O)[C@@H](NC(=O)[C@@H]1CSSC[C@H](NC(=O)[C@H](C)N)C(=O)N[C@@H](CC(=O)O)C(=O)N[C@@H]([C@@H](C)O)C(=O)N[C@@H](C)C(=O)N[C@@H](C(C)C)C(=O)N1)C(C)C)C(=O)N[C@@H](CO)C(=O)N[C@@H](CCC(N)=O)C(=O)N[C@@H](CCC(=O)O)C(=O)N[C@@H](CC(C)C)C(=O)N[C@@H](Cc1c[nH]cn1)C(=O)N[C@@H](CCCNC(=N)N)C(=O)N[C@@H](CC(C)C)C(=O)N[C@@H](CCC(N)=O)C(=O)N[C@H](C(=O)N[C@@H](Cc1ccc(O)cc1)C(=O)N1CCC[C@H]1C(=O)N[C@@H](CCCNC(=N)N)C(=O)N[C@H](C(=O)N[C@@H](CC(N)=O)C(=O)N[C@H](C(=O)NCC(=O)N[C@@H](CO)C(=O)N[C@@H](CCCCN)C(=O)N[C@@H](C)C(=O)N[C@@H](Cc1ccccc1)C(N)=O)C(C)C)[C@@H](C)O)[C@@H](C)O` [compound 3] (H-ACDTAVCVLGRLSQELHRLQTYPRTNVGSKAF-NH2; disulfide 2-7 (inferred)), the inhibition at 1 µM is 95.9%.

With `CC(C)C[C@H](NC(=O)[C@H](CCCNC(=N)N)NC(=O)CNC(=O)[C@H](CC(C)C)NC(=O)[C@@H](NC(=O)[C@@H]1CSSC[C@H](N)C(=O)N[C@@H](CO)C(=O)N[C@@H](CC(N)=O)C(=O)N[C@@H]([C@@H](C)O)C(=O)N[C@@H](C)C(=O)N[C@@H](C)C(=O)N1)C(C)C)C(=O)N[C@@H](CO)C(=O)N[C@@H](CCC(N)=O)C(=O)N[C@@H](CCC(=O)O)C(=O)N[C@@H](CC(C)C)C(=O)N[C@@H](Cc1c[nH]cn1)C(=O)N[C@@H](CCCNC(=N)N)C(=O)N[C@@H](CC(C)C)C(=O)N[C@@H](CCC(N)=O)C(=O)N[C@H](C(=O)N[C@@H](Cc1ccc(O)cc1)C(=O)N1CCC[C@H]1C(=O)N[C@@H](CCCNC(=N)N)C(=O)N[C@H](C(=O)N[C@@H](CC(N)=O)C(=O)N[C@H](C(=O)NCC(=O)N[C@@H](CO)C(=O)N[C@@H](CCCCN)C(=O)N[C@@H](C)C(=O)N[C@@H](Cc1ccccc1)C(N)=O)C(C)C)[C@@H](C)O)[C@@H](C)O` [compound 8] (H-CSNTAACVLGRLSQELHRLQTYPRTNVGSKAF-NH2; disulfide 1-7 (inferred)), the inhibition at 1 µM is 95.4%.
